Laboratory results from ChEMBL document CHEMBL1201862, “PubChem BioAssay data set” (2004).
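Five compound concentrations were applied to cells in 96-well plates for 48 hours; endpoints were derived by simple linear interpolation of the resulting dose-response curve. Abbreviation: GI50, concentration required for 50% inhibition of growth.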 Activity calls are given as the source filed them. No stated cut-off is given here; in the data, active = GI50 up to about 1.1 µM and inactive = higher.

Experiments:
Experiment in all cases: DTP human tumour cell line panel, 48 h
A498 = test system: A498
ACHN = test system: ACHN
CAKI-1 = test system: CAKI-1
EKVX = test system: EKVX
HCT-15 = test system: HCT-15
KM12 = test system: KM12
M14 = test system: M14
Malme-3M = test system: Malme-3M
NCI/ADR-RES = test system: NCI/ADR-RES
OVCAR-4 = test system: OVCAR-4
PC-3 = test system: PC-3
RXF 393 = test system: RXF 393
SF-268 = test system: SF-268
SF-295 = test system: SF-295
SK-MEL-2 = test system: SK-MEL-2
SK-OV-3 = test system: SK-OV-3
UACC-62 = test system: UACC-62
DLD-1 = test system: DLD-1
DMS-114 = test system: DMS-114
UACC-257 = test system: UACC-257

Measured: GI50

c1ccc(CSC2(SCc3ccccc3)CCCC2)cc1
inactive: A498 > 10 µM | ACHN > 10 µM | CAKI-1 > 10 µM | EKVX > 10 µM | KM12 > 10 µM | M14 > 10 µM | Malme-3M > 10 µM | NCI/ADR-RES > 10 µM | OVCAR-4 > 10 µM | PC-3 > 10 µM | RXF 393 > 10 µM | SF-268 > 10 µM | SF-295 > 10 µM | SK-MEL-2 > 10 µM | SK-OV-3 > 10 µM | UACC-62 > 10 µM
> 10 µM: HCT-15

CC1(C)OP23(NC(=O)OC2(C(F)(F)F)c2ccccc2O3)OC1(C)C (centres undefined)
inactive: ACHN > 100 µM | DLD-1 > 100 µM | DMS-114 > 100 µM | KM12 > 100 µM | M14 > 100 µM | Malme-3M > 100 µM | OVCAR-4 > 100 µM | RXF 393 > 100 µM | SF-268 > 100 µM | SF-295 > 100 µM | SK-MEL-2 > 100 µM | SK-OV-3 > 100 µM | UACC-257 > 100 µM | UACC-62 > 100 µM
> 100 µM: HCT-15

C[Si](C)(C)/C=C/CN1C(=O)CCC1=O
inactive: A498 > 100 µM | ACHN > 100 µM | DLD-1 > 100 µM | DMS-114 > 100 µM | EKVX > 100 µM | KM12 > 100 µM | M14 > 100 µM | Malme-3M > 100 µM | SF-268 > 100 µM | SK-MEL-2 > 100 µM | SK-OV-3 > 100 µM | UACC-62 > 100 µM
> 100 µM: HCT-15

COc1cc(C2C(C(=O)O)=C(CO)Oc3cc4c(cc32)OCO4)cc(OC)c1O (centres undefined)
> 100 µM: HCT-15
inactive: ACHN > 100 µM | CAKI-1 > 100 µM | DLD-1 > 100 µM | DMS-114 > 100 µM | EKVX > 100 µM | M14 > 100 µM | Malme-3M > 100 µM | OVCAR-4 > 100 µM | SF-295 > 100 µM | SK-OV-3 > 100 µM | UACC-257 > 100 µM | UACC-62 > 100 µM

CC1(C)CC(=O)C2=C(C1)OC1=C(CC(C)(C)CC1=O)C2c1ccccc1[N+](=O)[O-] (centres undefined)
inactive: A498 > 100 µM | ACHN > 100 µM | CAKI-1 > 100 µM | EKVX > 100 µM | KM12 > 100 µM | M14 > 100 µM | Malme-3M > 100 µM | NCI/ADR-RES > 100 µM | OVCAR-4 > 100 µM | PC-3 > 100 µM | RXF 393 > 100 µM | SF-268 > 100 µM | SF-295 > 100 µM | SK-MEL-2 > 100 µM | SK-OV-3 > 100 µM | UACC-62 > 100 µM
> 100 µM: HCT-15

c1ccc(C(NC2=NCCO2)c2ccccc2)cc1
inactive: A498 5.75 µM | ACHN > 10 µM | CAKI-1 > 10 µM | EKVX > 10 µM | KM12 > 10 µM | M14 > 10 µM | Malme-3M > 10 µM | NCI/ADR-RES > 10 µM | OVCAR-4 > 10 µM | PC-3 > 10 µM | RXF 393 > 10 µM | SF-268 > 10 µM | SF-295 9.33 µM | SK-MEL-2 > 10 µM | SK-OV-3 > 10 µM | UACC-62 > 10 µM
> 10 µM: HCT-15

O=C(O)Cc1cc(F)ccc1C(=O)O
73.5 µM: HCT-15
inactive: A498 > 100 µM | ACHN > 100 µM | CAKI-1 31 µM | EKVX > 100 µM | KM12 > 100 µM | M14 > 100 µM | NCI/ADR-RES > 100 µM | PC-3 > 100 µM | RXF 393 58.5 µM | SF-268 > 100 µM | SF-295 > 100 µM | SK-MEL-2 > 100 µM | SK-OV-3 > 100 µM | UACC-257 > 100 µM | UACC-62 > 100 µM

Cc1nc2ccccc2n1C(=O)c1c(F)c(F)c(F)c(F)c1F
11.2 µM: HCT-15
inactive: A498 20.3 µM | ACHN 22.9 µM | CAKI-1 16.7 µM | EKVX 28.3 µM | KM12 3.13 µM | M14 10.8 µM | Malme-3M 19.8 µM | NCI/ADR-RES 17.5 µM | OVCAR-4 14.5 µM | PC-3 17.5 µM | RXF 393 15.5 µM | SF-268 27 µM | SF-295 28.8 µM | SK-MEL-2 7.41 µM | SK-OV-3 22.3 µM | UACC-257 13.7 µM | UACC-62 16.1 µM

CC(=O)OC(OC(C)=O)n1cc(C=O)c2ccccc21
> 100 µM: HCT-15
inactive: A498 36.7 µM | ACHN > 100 µM | CAKI-1 > 100 µM | M14 > 100 µM | NCI/ADR-RES > 100 µM | OVCAR-4 > 100 µM | PC-3 > 100 µM | SF-295 > 100 µM | SK-MEL-2 > 100 µM | SK-OV-3 > 100 µM | UACC-257 > 100 µM

Cc1cc(C)n(C(=C(C(Cl)=C(Cl)Cl)[N+](=O)[O-])n2nc(C)cc2C)n1
3.2 µM: HCT-15
inactive: A498 2.86 µM | ACHN 3.21 µM | CAKI-1 3.23 µM | EKVX 2.58 µM | KM12 3.48 µM | M14 3.8 µM | Malme-3M 2.98 µM | NCI/ADR-RES 3.78 µM | OVCAR-4 3.59 µM | PC-3 4.43 µM | RXF 393 3.79 µM | SF-268 4.23 µM | SF-295 3.85 µM | SK-MEL-2 1.37 µM | SK-OV-3 3.29 µM | UACC-257 3.24 µM | UACC-62 4.06 µM

CN(/N=C1\C(=O)Nc2ccccc21)c1ccccc1
44.2 µM: HCT-15
inactive: A498 > 100 µM | ACHN 77.6 µM | CAKI-1 22.1 µM | EKVX 29.8 µM | KM12 29.6 µM | M14 74.6 µM | Malme-3M 31.9 µM | OVCAR-4 95.3 µM | PC-3 45.4 µM | SF-268 43.2 µM | SF-295 40.7 µM | SK-MEL-2 > 100 µM | SK-OV-3 > 100 µM | UACC-257 > 100 µM | UACC-62 > 100 µM

Cc1cnc(/N=c2\sc(C)cn2-c2ncc(C)s2)s1
inactive: ACHN > 100 µM | EKVX > 100 µM | KM12 > 100 µM | M14 > 100 µM | Malme-3M > 100 µM | NCI/ADR-RES > 100 µM | OVCAR-4 > 100 µM | PC-3 > 100 µM | RXF 393 > 100 µM | SF-268 > 100 µM | SF-295 > 100 µM | SK-OV-3 > 100 µM | UACC-257 > 100 µM | UACC-62 > 100 µM
> 100 µM: HCT-15

N#C/N=N/c1cc(Cl)c(/N=N/C#N)cc1Cl
inactive: A498 > 100 µM | ACHN > 100 µM | DLD-1 > 100 µM | DMS-114 > 100 µM | EKVX > 100 µM | KM12 > 100 µM | M14 > 100 µM | Malme-3M > 100 µM | OVCAR-4 47 µM | RXF 393 > 100 µM | SF-268 > 100 µM | SF-295 > 100 µM | SK-MEL-2 > 100 µM | SK-OV-3 > 100 µM | UACC-257 > 100 µM | UACC-62 > 100 µM
> 100 µM: HCT-15

CC(=O)C1CC[C@@H]2[C@H](CC[C@]3(C)[C@@H](O)CC[C@@H]23)[C@H]1C(=O)O (some centres undefined)
inactive: A498 > 100 µM | CAKI-1 > 100 µM | EKVX > 100 µM | KM12 > 100 µM | M14 > 100 µM | Malme-3M > 100 µM | NCI/ADR-RES > 100 µM | OVCAR-4 > 100 µM | PC-3 > 100 µM | RXF 393 > 100 µM | SF-268 > 100 µM | SF-295 > 100 µM | SK-MEL-2 > 100 µM | SK-OV-3 > 100 µM | UACC-257 > 100 µM | UACC-62 > 100 µM
> 100 µM: HCT-15

COC(=O)c1cn(CC(O)CCl)nn1 (centres undefined)
> 100 µM: HCT-15
inactive: A498 > 100 µM | ACHN > 100 µM | CAKI-1 > 100 µM | EKVX > 100 µM | KM12 > 100 µM | M14 > 100 µM | Malme-3M > 100 µM | NCI/ADR-RES > 100 µM | OVCAR-4 > 100 µM | PC-3 > 100 µM | RXF 393 > 100 µM | SF-268 > 100 µM | SK-MEL-2 > 100 µM | UACC-257 > 100 µM

O=C(O)C12CCCCC1CCCC2 (centres undefined)
inactive: A498 > 100 µM | ACHN > 100 µM | CAKI-1 > 100 µM | DLD-1 > 100 µM | DMS-114 > 100 µM | EKVX > 100 µM | KM12 > 100 µM | M14 > 100 µM | OVCAR-4 > 100 µM | SF-268 > 100 µM | SF-295 > 100 µM | SK-OV-3 > 100 µM | UACC-62 > 100 µM
> 100 µM: HCT-15

COc1c(Br)cc(CC(N)=O)c(O)c1Br
inactive: A498 > 100 µM | ACHN > 100 µM | CAKI-1 > 100 µM | DLD-1 > 100 µM | DMS-114 > 100 µM | EKVX > 100 µM | KM12 > 100 µM | Malme-3M > 100 µM | OVCAR-4 > 100 µM | RXF 393 > 100 µM | SF-268 > 100 µM | SF-295 > 100 µM | SK-MEL-2 > 100 µM | SK-OV-3 > 100 µM | UACC-257 > 100 µM | UACC-62 > 100 µM

C[C@]12CC[C@H]3[C@@H](CCC4=CC(=O)CC[C@@]43C)[C@@H]1CC[C@@H]2C(=O)COS(=O)(=O)c1ccc(Br)cc1
inactive: A498 20.2 µM | ACHN 10.9 µM | CAKI-1 7.76 µM | EKVX 7.67 µM | KM12 15.1 µM | M14 6.55 µM | Malme-3M 3.49 µM | NCI/ADR-RES 10.6 µM | OVCAR-4 4.5 µM | PC-3 8.85 µM | RXF 393 14.5 µM | SF-268 8.93 µM | SF-295 19.3 µM | SK-MEL-2 8.38 µM | SK-OV-3 15.1 µM | UACC-257 13.7 µM | UACC-62 16 µM
14.2 µM: HCT-15
